Laboratory results reported in patent US3953474A.

How the values were obtained:
E. tenella = assay: Efficacy against E. tenella in broiler cockerels (Table I); type: in vivo, Eimeria tenella; details: for Percent Mortality: due to coccidiosis; for Percent Weight Gain: normal controls = 100; for Average Cecal Lesion Score: scale 0-4
Description: (§1) The anticoccidial effects of the A204I derivatives are illustrated by the effects of various of the compounds in controlling single-species infections of Eimeria tenella, Eimeria necatrix, Eimeria mivati, and Eimeria brunetti and a multiple-species infection of Eimeria maxima and Eimeria tenella in chickens.
(§2) For these studies, groups of five 7-day-old chicks were fed a mash diet containing therein a uniformly dispersed A204I derivative. After having been on this ration for 48 hours, each bird was inoculated with sporulated oocysts of the particular species of Eimeria being tested.
(§3) Some of these groups were also inoculated with Eimeria after 48 hours and served as infected controls. Other of these groups were not inoculated with Eimeria and served as normal controls. The results of treatment were evaluated 7 days after inoculation. The birds were weighed, sacrificed and examined for evidence of coccidial lesions. Coccidial involvement was expressed on an arbitrary scale, increasing from zero (no evidence of coccidiosis) to four (maximum involvement for the Eimeria sp. tested). The percent reduction in lesion score is calculated by subtracting the average lesion score of the treated group from the average lesion score of the infected control group, dividing this difference by the average lesion score of the infected control group, and multiplying the quotient by 100.
(§4) The percent weight gain is calculated using the weight gain of normal controls as 100 percent.

E. necatrix = assay: Efficacy against E. necatrix in broiler cockerels (Table II); type: in vivo, Eimeria necatrix; details: for Percent Mortality: due to coccidiosis; for Percent Weight Gain: normal controls = 100; for Average Intestinal Lesion Score: scale 0-4; for Percent Reduction Lesion Score: vs infected controls
Description: as §1, §2, §3, §4

E. brunetti = assay: Efficacy against E. brunetti in broiler cockerels (Table IV); type: in vivo, Eimeria brunetti; details: for Percent Mortality: due to coccidiosis; for Percent Weight Gain: normal controls = 100; for Average Lesion Score: scale 0-4; for Percent Reduction Lesion Score: vs infected controls
Description: as §1, §2, §3, §4

[1] = Rat feeding studies (Table VII); type: in vivo, rats; details: 14 days, mean
Description: For this test, five rats of each sex were studied for 14 days at each treatment level. The mean changes in body weight and the mean amounts of food ingested were calculated for each group.

E. maxima and E. tenella = assay: Efficacy against a mixed infection of E. maxima and E. tenella in broiler cockerels (Table V); type: in vivo, Eimeria maxima and Eimeria tenella; details: for Percent Mortality: due to coccidiosis; for Percent Weight Gain: normal controls = 100; for Cecal Lesions, Average Lesion Score / Intestinal Lesions, Average Lesion Score: scale 0-4; for Intestinal Lesions, Percent Reduction Lesion Score / Cecal Lesions, Percent Reduction Lesion Score: vs infected controls
Description: as §1, §2, §3, §4

pKa' determination = details: 66% aqueous dimethylformamide
E. mivati = assay: Efficacy against E. mivati in broiler cockerels (Table III); type: in vivo, Eimeria mivati; details: for Percent Mortality: due to coccidiosis; for Percent Weight Gain: normal controls = 100; for Average Intestinal Lesion Score: scale 0-4; for Percent Reduction Lesion Score: vs infected controls
Description: as §1, §2, §3, §4

[2] = Acute oral toxicity in mice; details: mouse, in vivo
Text: The acute toxicities in mice of various of the A204I derivatives, also administered orally and expressed as LD50, are as follows: […]

[3] = second experiment, .0025 percent in diet
[4] = second experiment, .0025 percent in diet, vs infected control
[5] = first experiment, .00165 percent in diet
[6] = first experiment, .0066 percent in diet
[7] = second experiment, .005 percent in diet

## COCCOC1(C(C)C(=O)O)OC(CC2CC(OC)C(C)C3(O2)OC(C)(C2CCC(C4CCC(C5OC(C)(O)C(C)C(OC)C5C)O4)O2)C(OC)C3C)C(C)(OC)C(OC2CCC(OC)C(C)O2)C1C (stereo not shown) [A204I 2-methoxyethyl ether derivative]
E. tenella; [3]
  Percent Mortality: 0%
  Percent Weight Gain: 90%
  Average Cecal Lesion Score: 2.9
E. tenella; [4]
  Percent Reduction Lesion Score: < 40%

## CCCOC1(C(C)C(=O)O)OC(CC2CC(OC)C(C)C3(O2)OC(C)(C2CCC(C4CCC(C5OC(C)(O)C(C)C(OC)C5C)O4)O2)C(OC)C3C)C(C)(OC)C(OC2CCC(OC)C(C)O2)C1C (stereo not shown) [A204I n-propyl ether, A204I n-propyl ether derivative]
E. necatrix; .0025 percent in diet
  Percent Mortality: 0%
  Percent Weight Gain: 63%
  Average Intestinal Lesion Score: 1.6
  Percent Reduction Lesion Score: 59%
E. necatrix; .005 percent in diet
  Percent Mortality: 6.7%
  Percent Weight Gain: 92%
  Average Intestinal Lesion Score: 0.2
  Percent Reduction Lesion Score: 95%
E. necatrix; .01 percent in diet
  Percent Mortality: 0%
  Percent Weight Gain: 89%
  Average Intestinal Lesion Score: 0
  Percent Reduction Lesion Score: 100%
E. brunetti; .0025 percent in diet
  Percent Mortality: 0%
  Percent Weight Gain: 95%
  Average Lesion Score: 0.80
E. brunetti; .005 percent in diet
  Percent Mortality: 0%
  Percent Weight Gain: 89%
  Average Lesion Score: 0
  Percent Reduction Lesion Score: 100%
E. brunetti; .01 percent in diet
  Percent Mortality: 0%
  Percent Weight Gain: 89%
  Average Lesion Score: 0
  Percent Reduction Lesion Score: 100%
[1]; female, 5 ppm
  Body Weight Change: +34.0 g
  Food ingested: 224 g
[1]; female, 10 ppm
  Body Weight Change: +36.0 g
  Food ingested: 218 g
[1]; female, 20 ppm
  Body Weight Change: +31.6 g
  Food ingested: 229 g
[1]; male, 5 ppm
  Body Weight Change: +77.8 g
  Food ingested: 281 g
[1]; male, 10 ppm
  Body Weight Change: +45.2 g
  Food ingested: 221 g
[1]; male, 20 ppm
  Body Weight Change: +66.6 g
  Food ingested: 288 g
E. tenella; [5]
  Percent Mortality: 35%
  Percent Weight Gain: 79%
  Average Cecal Lesion Score: 4.0
E. tenella; first experiment, .00165 percent in diet, vs infected controls
  Percent Reduction Lesion Score: 0%
E. tenella; [6]
  Percent Mortality: 20%
  Percent Weight Gain: 79%
  Average Cecal Lesion Score: 3.7
E. tenella; first experiment, .0066 percent in diet, vs infected controls
  Percent Reduction Lesion Score: 0%
E. tenella; [3]
  Percent Mortality: 0%
  Percent Weight Gain: 87%
  Average Cecal Lesion Score: 1.8
E. tenella; [4]
  Percent Reduction Lesion Score: 50%
E. tenella; [7]
  Percent Mortality: 0%
  Percent Weight Gain: 96%
  Average Cecal Lesion Score: 0
E. tenella; second experiment, .005 percent in diet, vs infected control
  Percent Reduction Lesion Score: 100%
E. maxima and E. tenella; .0025 percent in diet
  Percent Mortality: 0%
  Percent Weight Gain: 94%
  Cecal Lesions, Average Lesion Score: 2.67
  Intestinal Lesions, Average Lesion Score: 0.13
  Intestinal Lesions, Percent Reduction Lesion Score: 84%
E. maxima and E. tenella; .005 percent in diet
  Percent Mortality: 0%
  Percent Weight Gain: 99%
  Cecal Lesions, Average Lesion Score: 0.07
  Intestinal Lesions, Average Lesion Score: 0.07
  Cecal Lesions, Percent Reduction Lesion Score: 98%
  Intestinal Lesions, Percent Reduction Lesion Score: 91%
E. maxima and E. tenella; .01 percent in diet
  Percent Mortality: 0%
  Percent Weight Gain: 98%
  Cecal Lesions, Average Lesion Score: 0
  Intestinal Lesions, Average Lesion Score: 0
  Cecal Lesions, Percent Reduction Lesion Score: 100%
  Intestinal Lesions, Percent Reduction Lesion Score: 100%
pKa' determination
  pKa: 7.8
E. mivati; .0025 percent in diet
  Percent Mortality: 0%
  Percent Weight Gain: 94%
  Average Intestinal Lesion Score: 0.27
  Percent Reduction Lesion Score: 85%
E. mivati; .005 percent in diet
  Percent Mortality: 0%
  Percent Weight Gain: 97%
  Average Intestinal Lesion Score: 0
  Percent Reduction Lesion Score: 100%
E. mivati; .01 percent in diet
  Percent Mortality: 0%
  Percent Weight Gain: 98%
  Average Intestinal Lesion Score: 0
  Percent Reduction Lesion Score: 100%
[2]
  LD50: 38 ± 6 mg/kg

## COC1CCC(OC2C(C)C(OC(C)C)(C(C)C(=O)O)OC(CC3CC(OC)C(C)C4(O3)OC(C)(C3CCC(C5CCC(C6OC(C)(O)C(C)C(OC)C6C)O5)O3)C(OC)C4C)C2(C)OC)OC1C (stereo not shown) [A204I isopropyl ether, A204I isopropyl ether derivative]
E. tenella; [3]
  Percent Mortality: 0%
  Percent Weight Gain: 95%
  Average Cecal Lesion Score: 2.3
E. tenella; [4]
  Percent Reduction Lesion Score: < 40%
[2]
  LD50: 20 to 36 mg/kg
